Here are results for nine compounds from patent US8288409B2, “Quinolizidinone M1 receptor positive allosteric modulators” (Merck Sharp & Dohme Corp., priority 2008, dated 2012).

pEC50: −log10 of the molar value.

The first experiment concerns the target T1, acetylcholine muscarinic M1 receptor (Homo sapiens, UniProt P11229).
T1 construct: expressed in transfected cells; host or cells: CHOnfat cells (CHO; also called CHOK1/hM1)
T1 sequence (P11229 1-460): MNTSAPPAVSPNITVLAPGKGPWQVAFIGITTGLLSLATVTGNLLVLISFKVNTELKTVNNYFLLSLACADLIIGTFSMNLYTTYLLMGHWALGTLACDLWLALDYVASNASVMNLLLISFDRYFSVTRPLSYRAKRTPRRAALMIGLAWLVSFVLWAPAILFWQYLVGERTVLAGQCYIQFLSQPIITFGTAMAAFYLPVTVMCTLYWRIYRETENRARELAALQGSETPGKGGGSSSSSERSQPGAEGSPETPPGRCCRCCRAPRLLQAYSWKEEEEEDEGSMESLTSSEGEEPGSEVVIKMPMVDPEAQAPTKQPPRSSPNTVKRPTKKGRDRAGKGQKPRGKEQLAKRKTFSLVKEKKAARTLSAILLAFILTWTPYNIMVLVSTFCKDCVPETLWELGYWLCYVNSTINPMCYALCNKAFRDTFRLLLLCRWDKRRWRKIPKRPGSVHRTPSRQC
Put plainly: FLIPR intracellular calcium assay for M1 receptor positive allosteric modulator activity. Type of experiment: cell-based.
Details: not given
How it is done: The assay studies the effect of one or several concentrations of test compounds on basal or acetylcholine-stimulated Ca^2+ levels using FLIPR.
Compounds are prepared and subjected to a preincubation period of 4 min. Thereafter, a single EC20 concentration of acetylcholine is added to each well (3 nM final). The intracellular Ca^2+ level of each sample is measured and compared to an acetylcholine control to determine any modulatory activity.
Cells: CHOnfat/hM1, hM2, hM3 or hM4 cells are plated 24 hr before the assay at a density of 18,000 cells/well (100 μl) in a 384 well plate. CHOnfat/hM1 and CHOnfat/hM3 Growth Medium: 90% DMEM (Hi Glucose); 10% HI FBS; 2 mM L-glutamine; 0.1 mM NEAA; Pen-Strep; and 1 mg/ml Geneticin, are added. For M2Gqi5CHOnfat and M4Gqi5CHOnfat cells, an additional 600 μg/ml hygromycin is added.
Buffers. […] Dye Loading Buffer: Assay Buffer plus 1% Fetal Bovine Serum and Fluo-4AM/Pluronic Acid Mixture. […] 20% Pluronic Acid Solution stock, with a concentration of 0.04% in Buffer, 0.02% in Assay.
65 μL of 2 mM Fluo-4AM are mixed with 130 of 20% Pluronic Acid. The resulting solution and 650 μL FBS is added to the assay buffer for a total volume of 65 mL. Positive Controls: 4-Br-A23187: 10 mM in DMSO; final concentration 10 μM. Acetylcholine: 10 mM in water, working stock at both 20 μM and 30 μM in assay buffer, final concentration of 10 μM. This is used to check the maximum stimulation of the CHOK1/hM1 cells. 20 μM (2×) acetylcholine is added in the preincubation part of the assay, and the 30 μM (3×) stock is added in the second part. (EC20)Acetylcholine: 10 mM in water, working stock of 9 nM (3×), and final concentration in assay is 3 nM. This is used after the preincubation with test compounds. Addition of the EC20 Acetylcholine to each well with a test compound will ascertain any modulator activity. 24 wells contain 3 nM Acetylcholine alone as a control.
Determining Activity of Putative Compounds:
Four 96-well plates are combined into a 384-well plate using Mosquito Nanolitre Pipetting System by transferring 1 μl of serial diluted compounds to each well, and 1 mM acetylcholine (100× stock concentration) were added as a control. Using Temo, 49 μl assay buffer is added to each well of the 384-well plate right before assay.
In a 96-well Whatman 2 ml Uniplate, 9 nM Acetylcholine (3×) is pipetted into wells corresponding to the screening compounds and into control wells. The 30 μM acetylcholine control (3×) is added into control wells and the 3× agonist plate is transferred into a 384-well plate.
Cells are washed three times with 100 μL of buffer, leaving 30 μL of buffer in each well. Using Multimek, 30 μL of Dye Loading Buffer is added into each well and incubated at 37° C., 5% CO2 for up to one hr.
After 60 min, the cells are washed three times with 100 μL of buffer, leaving 30 μL of buffer in each well. The cell plate, screening plate, and agonist addition plates are placed on the platform in the FLIPR and the door is closed. A signal test to check background fluorescence and basal fluorescence signal is performed. Laser intensity is adjusted if necessary.
4 min of preincubation with the test compounds is provided to determine any agonist activity on the M1 receptor by comparison to the 1 mM acetylcholine control. After preincubation, the EC20 value of acetylcholine (3 nM final) is added to determine any modulator activity.
As for `O=C(O)c1cc(CN2CCC(c3ccccc3)CC2)c2ccccn2c1=O` [Example 25], the pEC50 is 5.87.

Still in this experiment, the particulars now being: CHOnfat/hM1 cells, 4 min preincubation, then EC20 acetylcholine (3 nM final), intracellular Ca2+ by FLIPR384; read-out: IP Value (inflection point).
For `O=C(O)c1cc(CN2CCC(c3nc4ccccc4[nH]3)CC2)c2ccccn2c1=O` [Example 85], the pEC50 was 6.91.
As for `O=C(O)c1cc(CN2CCCC(O)C2)c2ccccn2c1=O` (stereo not drawn) [Example 24], the pEC50 is 5.06.
On to `O=C(O)c1cc(CN2CCC(c3nc4cc(F)ccc4[nH]3)CC2)c2ccccn2c1=O` [Example 86], for which the pEC50 is 7.38.
In the case of `Cn1c(C2CCN(Cc3cc(C(=O)O)c(=O)n4ccccc34)CC2)nc2ccccc21` [Example 91, 1-{[4-(1-methyl-1H-benzimidazol-2-yl)piperidin-1-yl]methyl}-4-oxo-4H-quinolizine-3-carboxylic Acid], the pEC50 was 4.52.
The same measure, in the same setting: the value for `O=C(O)c1cc(CN2CCCCC2c2ccncc2)c2ccccn2c1=O` (stereo not drawn) [Example 6] was 5.65; that for `O=C(O)c1cc(CN2CCC(c3c[nH]c4ccc(O)cc34)CC2)c2ccccn2c1=O` [Example 83] was 6.56.
Regarding `O=C(O)c1cc(CN2CCCCC2c2nc3cc(F)ccc3[nH]2)c2ccccn2c1=O` (stereo not drawn) [Example 14], the pEC50 was 6.29.
For the compound `O=C(O)c1cc(CN2CCC(c3ccc(C(F)(F)F)cc3)CC2)c2ccccn2c1=O` [Example 1, 4-oxo-1-({4-[4-(trifluoromethyl)phenyl]piperidin-1-yl}methyl)-4H-quinolizine-3-carboxylic Acid], the pEC50 was 6.26.
